Results from patent US7799795B2, “Aryl nitrile compounds and compositions and their uses in treating inflammatory and related disorders” (Amgen Inc., priority 2005, dated 2010).
Read-outs that look alike come from different tables or passages of the source.

Assays:
[1] = molecular target: T1, CXCR3 (Homo sapiens, UniProt P49682); experiment: CXCR3 binding assay in binding buffer (125I-labelled chemokine, CXCR3-expressing cells); conditions: absence of human plasma
T1 construct: ChemoCentryx
T1 sequence (P49682 1-368): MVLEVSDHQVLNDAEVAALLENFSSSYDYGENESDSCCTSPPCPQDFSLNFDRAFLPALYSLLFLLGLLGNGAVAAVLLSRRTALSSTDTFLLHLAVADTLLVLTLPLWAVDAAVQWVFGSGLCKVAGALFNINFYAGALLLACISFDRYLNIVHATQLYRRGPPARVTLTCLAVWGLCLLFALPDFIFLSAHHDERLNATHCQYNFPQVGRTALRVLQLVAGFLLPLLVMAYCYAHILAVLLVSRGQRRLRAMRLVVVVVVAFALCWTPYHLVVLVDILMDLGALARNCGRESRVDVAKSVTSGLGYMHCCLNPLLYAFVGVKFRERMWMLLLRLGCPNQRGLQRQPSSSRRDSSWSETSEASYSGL
Procedure: (§1) CXCR3 Binding Assay: CXCR3 binding assays were conducted as previously described (see, e.g., Example 12 in WO 02/083143, incorporated herein by reference in its entirety), in the absence (“binding buffer”) or presence of human plasma. Unless otherwise noted, all reagents used are available from commercial sources (e.g., Sigma-Aldrich, St. Louis, Mo., USA). Test compounds are diluted in DMSO to a concentration that is 40-times the intended final assay concentration; 5 μL are transferred to each well of a 96-well flat-bottomed polypropylene plate (e.g., from Greiner, Inc.). CXCR3-expressing cells obtained from ChemoCentryx were used in the assays to generate the data set forth below. The cells were resuspended in assay buffer (25 mM Hepes, 80 mM NaCl, 1 mM CaCl2, 5 mM MgCl2, 0.2% bovine serum albumin, pH 7.1, stored at 4° C.) at 5 million cells per mL; 100 μL of this cell suspension is then transferred to each well of a 96-well plate containing the diluted test compounds. ^125I-labelled chemokine (purchased from commercial sources, e.g., Amersham, PE Life Sciences) is diluted in assay buffer to a concentration of approximately […]; 100 μL of this chemokine solution is transferred to each well of a 96-well plate containing compounds and cell suspension. The plates are sealed with commercially available foil plate seals (e.g., from E&K Scientific), and stored at 4° C. for a period of 2 to 4 h, shaking gently. At the end of this incubation period, the contents of the assay plates are transferred to GF/B filter plates (Packard) that have been pre-coated by dipping into a solution containing 0.3% polyethyleneimine (Sigma-Aldrich), using a cell harvester (Packard), and washing twice with wash buffer (25 mM Hepes, 500 mM NaCl, 1 mM CaCl2, 5 mM MgCl2, pH 7.1, stored at room temperature). The filter plates are sealed on the bottom with plate seals (Packard), 50 μL of Microscint-20 scintillation fluid (Packard) is added to each well, and the top of the plates are sealed with clear plastic (TopSeal A, Packard). The plates are counted on a scintillation counter, such as a Packard TopCount. To measure non-specific binding, 4 wells containing unlabelled “cold” chemokine were included on each 96-well plate. To measure maximum binding, 4 wells containing 5 μL of DMSO, 100 μL of cell suspension and 100 μL of ^125I-labelled chemokine solution were included on each 96-well plate. Data were analyzed using commercially available software (e.g., Excel from Microsoft, Prism from GraphPad Software Inc.).

[2] = tested on: CYP3A4; experiment: Time dependent CYP inhibition assay (midazolam, pooled human liver microsomes); conditions: preincubation with NADPH, midazolam marker substrate
Procedure: (§3) CYP Inhibition Assay: Time dependent CYP inhibition assays were initiated by incubating a test compound in 0.1 mM phosphate buffer containing pooled human liver microsomes (1 mg/mL protein) in the presence of NADPH for 0, 15 and 30 minutes. At each time point, an aliquot of the preincubation mixture was removed and added to 0.1 mM phosphate buffer containing marker substrate (midazolam) and fresh NADPH. The residual CYP activity, after the preincubation times of 0, 15, and 30 minutes, was monitored for 5 minutes. Data are expressed as the % 1-OH midazolam formation at 15 minutes compared to that formed at 0 minutes. […] DMSO (vehicle control) caused an approximate 10% drop in CYP activity over 15 minutes.

[3] = molecular target: T1, CXCR3; experiment: CXCR3 binding assay in presence of human plasma
Procedure: as §1

[4] = tested on: Human peripheral blood mononuclear cells (PBMCs); experiment: I-TAC migration assay; type: cell-based; conditions: PBMC; activated human PBMCs, human ITAC, in human plasma
Procedure: I-TAC migration assay: Human peripheral blood mononuclear cells (PBMCs) were activated with OKT3 (purified by AB solutions from hybridoma cell line OKT3 (ATCC CRL-8001)) and IL-2 (Peprotech, Inc., Rocky Hill, N.J., USA). After fourteen days, the cells were loaded with chloromethyl-fluoroscein-diacetate (CMFDA) (Molecular Probes, Inc.) by incubating the activated PBMCs in 1 ng/mL CMFDA for >1.5 hours at 37° C. in a tissue culture incubator. While cells were loading, the test compounds were diluted in DMSO to a concentration that is 100-times the intended final assay concentration. Next, 100 ng/mL of human ITAC (Peprotech) in human plasma (EDTA, drug free, Biological Specialty Corp) was prepared. Test compounds were added to the human ITAC preparation. Cells were washed once in prewarmed (37° C.) RPMI (Invitrogen) media with 0.5% BSA and resuspended to 5 million cells/ml in human plasma. The test compounds were added to the PBMCs. A 96-well chemotaxis migration plate (NeuroProbe, Inc.) was assembled by adding, per well, 30 uL of ITAC/compound mixture in the lower chamber, placing the […] membrane on top of the ITAC/compound well, and adding 50 uL of the PBMC/compound mixture to the well. The plates were covered and incubated in a humidified tissue culture incubator for 2.5 hours. A standard curve of CMFDA-loaded cells to be used as a reference for the test plates was prepared. Migration plates were disassembled and are read in a fluorometric plate reader set to 475 nm absorbance, 517 nm emission. The fluorometric reading was converted to cell number using the standard curve and calculating the percentage of migrating cells.

[5] = Rat PK PO; type: in vivo; conditions: Sprague-Dawley, plasma; for bioavailability: read-out: Rat PK PO F %
Procedure: In Vivo Metabolic Evaluation in Rat: To study the metabolic fate of test compounds in vivo, Sprague-Dawley (SD) rats were administered (orally gavage) test compound in suspension. Blood samples (˜0.3 mL/timepoint) were collected at 1, 2, 4, 8, 24, 30 and 48 hours post-dose into EDTA containing tubes. All blood samples were collected via tail artery venipuncture under isofluorane anesthesia. Blood samples were processed for plasma by centrifugation and stored frozen until analysis (−20° to −70° C.). Samples were analyzed using a sensitive and selective LC/MS/MS method. Briefly, samples were prepared for analysis using protein precipitation. An aliquot of the resulting supernatant was subjected to LC/MS/MS analysis. Separation of the analytes from endogenous material was achieved using an reverse phase HPLC. Column effluent was monitored using a Sciex API 365 triple quadrapole mass spectrometer with a Sciex TurboIon Spray probe. Unknown concentrations of testing articles were determined using a calibration curve from 1 to 2000 ng/mL.
(§2) Pharmacokinetics of exemplary compounds of the invention was assessed in rats.

[6] = Rat PK (IV); conditions: in vivo
Procedure: as §2

[7] = tested on: CYP3A4; conditions: microsomes
Procedure: as §3

SMILES	IC50 [1]	IC50 [3]	IC50 [4]	also measured
CCS(=O)(=O)CCN(C(=O)Cc1ccc(F)c(C(F)(F)F)c1)[C@H](C)c1nc2ccccn2c(=O)c1-c1ccc(O)cc1	816 nM	4080 nM	–	Time Dependent CYP3A4 Inhibition [2]: Yes
CCS(=O)(=O)CCN(C(=O)Cc1ccc(F)c(C(F)(F)F)c1)[C@H](C)c1nc2ccccn2c(=O)c1-c1ccc(C#N)cc1	–	–	41 nM	–
CCS(=O)(=O)CCN(C(=O)Cc1ccc(F)c(C(F)(F)F)c1)[C@H](C)c1nc2ncccc2c(=O)n1-c1ccc(C#N)cc1 [drawing 199]	–	–	–	MRT [5]: 1.5 h; bioavailability [5]: 47.2%; clearance ([6]; read-out: Rat PK(IV) Cl (converted)): 39.7 mL/min/kg
CCOc1ccc(-c2c([C@@H](C)N(CCS(=O)(=O)CC)C(=O)Cc3ccc(F)c(C(F)(F)F)c3)nc3ncccn23)cc1	4 nM	70 nM	1500 nM	–
CCS(=O)(=O)CCN(C(=O)Cc1ccc(F)c(C(F)(F)F)c1)[C@H](C)c1nc2ncccc2c(=O)n1-c1ccc(C#N)cc1 [drawing 192]	–	–	120 nM	Time Dependent CYP3A4 Inhibition [7]: NO
CCS(=O)(=O)CCN(C(=O)Cc1ccc(C(F)(F)F)c(F)c1)[C@H](C)c1nc2ncccn2c(=O)c1-c1ccc(C#N)cc1	–	–	–	MRT [5]: 3.96 h; bioavailability [5]: 24%; Vd ([6]; read-out: Rat PK(IV) Vdss): 0.31 L/kg
CCS(=O)(=O)CCN(C(=O)Cc1ccc(F)c(C(F)(F)F)c1)[C@H](C)c1nc2ncccn2c1-c1ccc(C#N)cc1	10 nM	49 nM	83 nM	–
CCOc1ccc(-n2c([C@@H](C)N(CCS(=O)(=O)CC)C(=O)Cc3ccc(F)c(C(F)(F)F)c3)nc3ncccc3c2=O)cc1	1 nM	7 nM	22 nM	–
CCS(=O)(=O)CCN(C(=O)Cc1ccc(F)c(C(F)(F)F)c1)[C@H](C)c1nc2ncccc2c(=O)n1-c1ccc(O)cc1	–	–	–	Time Dependent CYP3A4 Inhibition [2]: Yes
CCS(=O)(=O)CCN(C(=O)Cc1ccc(F)c(C(F)(F)F)c1)[C@H](C)c1nc2ncccn2c1-c1ccc(O)cc1	10000 nM	10000 nM	–	Time Dependent CYP3A4 Inhibition [2]: Yes
CCOc1ccc(-c2c([C@@H](C)N(CCS(=O)(=O)CC)C(=O)Cc3ccc(F)c(C(F)(F)F)c3)nc3ccccn3c2=O)cc1	1 nM	57 nM	183 nM	–
